The data set is described as follows: solubility in water. Format: physicochemical.

`CCN(CC)CCNC(=O)c1c(C)[nH]c(/C=C2\C(=O)Nc3ccc(F)cc32)c1C` [sunitinib base form VIII, N-[2-(diethylamino)ethyl]-5-[(Z)-(5-fluoro-1,2-dihydro-2-oxo-3H-indol-3-ylidine)methyl]-2,4-dimethyl-1 H-pyrrole-3-carboxamide] displayed a solubility of less than 1000 µg/mL.

Source of the values: EP2253629A1, “Polymorphs of racemic sunitinib malate, compositions containing them and preparation thereof” (Teva Pharmaceutical Industries Ltd., priority 2007, dated 2009).
